Data: PubChem BioAssay AID1845201 (Molecular Pharmacology Branch, DTP, NCI, 2023)

System: COR L88 complex tumor spheroid viability
Test: Anticancer human tumor COR L88 cell line growth inhibition;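 further: compound exposure lasted 7 days before viability readout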;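 on viability, T/C: percent of DMSO vehicle-treated spheroids = 100%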
Details: for IC50: curve of first compound; for viability, T/C: stronger effect = lower value; active means viability on the fitted dose curve at most 10% of control; inactive means the rest
How it was run: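 Single agents and combinations were tested on spheroids built from tumor cells plus HUVEC and hMSC, at half-log dilutions starting at or near clinical Cmax, else 10 microM; final DMSO 0.25% (v/v).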

[1] = second compound 1 µM, first compound 0.0316 µM
[2] = second compound 1 µM, first compound 0.1 µM
[3] = second compound 1 µM, first compound 0.316 µM
[4] = second compound 1 µM, first compound 1 µM
[5] = second compound 1 µM, first compound 3.16 µM
[6] = second compound 1 µM, first compound 10 µM
[7] = second compound 3.16 µM, first compound 0.0316 µM
[8] = second compound 3.16 µM, first compound 0.1 µM
[9] = second compound 3.16 µM, first compound 0.316 µM
[10] = second compound 3.16 µM, first compound 1 µM
[11] = second compound 3.16 µM, first compound 3.16 µM
[12] = second compound 3.16 µM, first compound 10 µM
[13] = second compound 10 µM, first compound 0.0316 µM
[14] = second compound 10 µM, first compound 0.1 µM
[15] = second compound 10 µM, first compound 0.316 µM
[16] = second compound 10 µM, first compound 1 µM
[17] = second compound 10 µM, first compound 3.16 µM
[18] = second compound 10 µM, first compound 10 µM
[19] = second compound 31.6 µM, first compound 0.0316 µM
[20] = second compound 31.6 µM, first compound 0.1 µM
[21] = second compound 31.6 µM, first compound 0.316 µM
[22] = second compound 31.6 µM, first compound 1 µM
[23] = second compound 31.6 µM, first compound 3.16 µM
[24] = second compound 31.6 µM, first compound 10 µM
[25] = second compound 100 µM, first compound 0.0316 µM
[26] = second compound 100 µM, first compound 0.1 µM
[27] = second compound 100 µM, first compound 0.316 µM
[28] = second compound 100 µM, first compound 1 µM
[29] = second compound 100 µM, first compound 3.16 µM
[30] = second compound 100 µM, first compound 10 µM

CC1COCCN1c1cc(-c2ccnn2C)c2ccnc(-c3ccn[nH]3)c2n1 (stereo not given) + Cn1nnc2c(C(N)=O)ncn2c1=O
< 0.0316 µM: IC50 (second compound 10 µM) | IC50 (second compound 31.6 µM) | IC50 (second compound 100 µM)
0.159 µM: IC50 (second compound 1 µM)
inactive: viability, T/C [1] 80.7% | viability, T/C [2] 53.9% | viability, T/C [3] 41.1% | viability, T/C [4] 26.6% | viability, T/C [5] 11.2% | viability, T/C [7] 59% | viability, T/C [8] 47.8% | viability, T/C [9] 33.9% | viability, T/C [10] 22.4% | viability, T/C [11] 11.9% | viability, T/C [13] 46.1% | viability, T/C [14] 36.3% | viability, T/C [15] 29.4% | viability, T/C [16] 18.4% | viability, T/C [17] 9.76% | viability, T/C [19] 41.7% | viability, T/C [20] 33.8% | viability, T/C [21] 24.1% | viability, T/C [22] 16.8% | viability, T/C [25] 34.3% | viability, T/C [26] 27.8% | viability, T/C [27] 21.5% | viability, T/C [28] 12.3%
active: viability, T/C [6] 5.06% | viability, T/C [12] 4.44% | viability, T/C [18] 3.5% | viability, T/C [23] 7.93% | viability, T/C [24] 3.99% | viability, T/C [29] 6.89% | viability, T/C [30] 3.01%
0.0774 µM: IC50 (second compound 3.16 µM)

COc1cc(C)[nH]c(=O)c1CN1CCc2c(Cl)cc(C(OC)C3COC3)c(Cl)c2C1=O (stereo not given) + Cn1nnc2c(C(N)=O)ncn2c1=O
< 0.0316 µM: IC50 (second compound 100 µM)
0.111 µM: IC50 (second compound 31.6 µM)
0.549 µM: IC50 (second compound 10 µM)
inactive: viability, T/C [1] 76.1% | viability, T/C [2] 75% | viability, T/C [3] 71.3% | viability, T/C [4] 65.9% | viability, T/C [5] 67.5% | viability, T/C [6] 66.6% | viability, T/C [7] 74% | viability, T/C [8] 74.8% | viability, T/C [9] 63.4% | viability, T/C [10] 71.6% | viability, T/C [11] 69.7% | viability, T/C [12] 68.7% | viability, T/C [13] 62.7% | viability, T/C [14] 57.4% | viability, T/C [15] 48.8% | viability, T/C [16] 50.3% | viability, T/C [17] 46.6% | viability, T/C [18] 43.2% | viability, T/C [19] 55.5% | viability, T/C [20] 51.5% | viability, T/C [21] 39.7% | viability, T/C [22] 37% | viability, T/C [23] 33.3% | viability, T/C [24] 33.6% | viability, T/C [25] 49% | viability, T/C [26] 43.5% | viability, T/C [27] 37.2% | viability, T/C [28] 35.3% | viability, T/C [29] 33.3% | viability, T/C [30] 31.6%
> 10 µM: IC50 (second compound 1 µM) | IC50 (second compound 3.16 µM)

COc1ccc([C@@H](O)c2cc(-c3ncnc4cc(N5CCOCC5)ccc34)c(F)cc2Cl)nn1 + Cn1nnc2c(C(N)=O)ncn2c1=O
> 10 µM: IC50 (second compound 10 µM) | IC50 (second compound 31.6 µM) | IC50 (second compound 100 µM)
8.27 µM: IC50 (second compound 3.16 µM)
5.38 µM: IC50 (second compound 1 µM)
inactive: viability, T/C [1] 96.4% | viability, T/C [2] 94.1% | viability, T/C [3] 82% | viability, T/C [4] 78.3% | viability, T/C [5] 61.4% | viability, T/C [6] 36.7% | viability, T/C [7] 92.8% | viability, T/C [8] 104% | viability, T/C [9] 90.9% | viability, T/C [10] 88.2% | viability, T/C [11] 64.3% | viability, T/C [12] 47.2% | viability, T/C [13] 87% | viability, T/C [14] 98.7% | viability, T/C [15] 92% | viability, T/C [16] 75.1% | viability, T/C [17] 67.9% | viability, T/C [18] 54.6% | viability, T/C [19] 89.3% | viability, T/C [20] 79.9% | viability, T/C [21] 84.6% | viability, T/C [22] 73.9% | viability, T/C [23] 67.2% | viability, T/C [24] 51.3% | viability, T/C [25] 69.9% | viability, T/C [26] 70.8% | viability, T/C [27] 68% | viability, T/C [28] 62.5% | viability, T/C [29] 58.1% | viability, T/C [30] 55.4%

Cc1cc(C)c(CNC(=O)c2cc(-c3ccc(CN4CCOCC4)cc3)cc3c2cnn3C2CCCC2)c(=O)[nH]1 + Cn1nnc2c(C(N)=O)ncn2c1=O
> 10 µM: IC50 (second compound 1 µM) | IC50 (second compound 3.16 µM) | IC50 (second compound 10 µM)
8.54 µM: IC50 (second compound 31.6 µM)
inactive: viability, T/C [1] 102% | viability, T/C [2] 97% | viability, T/C [3] 93% | viability, T/C [4] 86.1% | viability, T/C [5] 76.8% | viability, T/C [6] 53.3% | viability, T/C [7] 101% | viability, T/C [8] 99.5% | viability, T/C [9] 88.5% | viability, T/C [10] 83.2% | viability, T/C [11] 72% | viability, T/C [12] 56.5% | viability, T/C [13] 90.7% | viability, T/C [14] 86.4% | viability, T/C [15] 88.5% | viability, T/C [16] 75.2% | viability, T/C [17] 69.8% | viability, T/C [18] 51.3% | viability, T/C [19] 86.7% | viability, T/C [20] 79.1% | viability, T/C [21] 78% | viability, T/C [22] 69% | viability, T/C [23] 56.1% | viability, T/C [24] 49.7% | viability, T/C [25] 68.7% | viability, T/C [26] 62.7% | viability, T/C [27] 63% | viability, T/C [28] 52.7% | viability, T/C [29] 49.1% | viability, T/C [30] 47%
3.35 µM: IC50 (second compound 100 µM)

[2H]c1nc(C)nc([2H])c1-c1cc(NC[C@@H](C)c2cccc3c(C(=O)NC)ccnc23)ncn1 + Cn1nnc2c(C(N)=O)ncn2c1=O
> 10 µM: IC50 (second compound 1 µM) | IC50 (second compound 3.16 µM) | IC50 (second compound 10 µM) | IC50 (second compound 31.6 µM) | IC50 (second compound 100 µM)
inactive: viability, T/C [1] 97.1% | viability, T/C [2] 98.5% | viability, T/C [3] 89.8% | viability, T/C [4] 93.3% | viability, T/C [5] 96% | viability, T/C [6] 97% | viability, T/C [7] 94.5% | viability, T/C [8] 95.3% | viability, T/C [9] 105% | viability, T/C [10] 98.6% | viability, T/C [11] 102% | viability, T/C [12] 103% | viability, T/C [13] 92.2% | viability, T/C [14] 93.3% | viability, T/C [15] 97.7% | viability, T/C [16] 88.7% | viability, T/C [17] 88.9% | viability, T/C [18] 98.7% | viability, T/C [19] 80% | viability, T/C [20] 85.6% | viability, T/C [21] 75.9% | viability, T/C [22] 82.4% | viability, T/C [23] 82.2% | viability, T/C [24] 75.8% | viability, T/C [25] 66% | viability, T/C [26] 66.6% | viability, T/C [27] 63.7% | viability, T/C [28] 69.5% | viability, T/C [29] 64.2% | viability, T/C [30] 65.8%
